The target of experiment [1] is T1, Rat Hepatic V1 Receptors (Rattus norvegicus, UniProt P30560).
T1 construct: Rat liver plasma membranes expressing the vasopressin V1 receptor subtypes; from tissue; host or cells: rat liver plasma membranes
Put plainly: Binding Assay to Rat Hepatic V1 Receptors. As to conditions: for pIC50: rat liver membranes, read-out: V1 IC50.

Experiment [2] deals with Vasopressin V1. Kind of experiment: Vasopressin V1 Antagonist Activity in Conscious Rats (vasopressin vasopressor response). The class given is in vivo, rat. Also on record: Average Change: unit not given here. Conditions: for % Inhibition / Average Change: SHR. The method in brief:
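Conscious rats are restrained supine, and under local 2% procaine a PE 10/20 cannula is passed through the ventral caudal tail artery into the lower abdominal aorta. The caudal vein is cannulated for intravenous dosing. Blood pressure is recorded with a Statham P23Db transducer, and vasopressin injections are repeated after compound dosing. Percent antagonism is calculated against the pre-drug vasopressor response taken as 100%.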

Where [3] appears, read: 10 mg/kg i.v., VAS 0.01 i.u./kg, 30 min.
The mark [4] stands for this setting: 10 mg/kg i.v., VAS 0.01 i.u./kg, 60 min.
The mark [5] stands for this setting: 10 mg/kg i.v., VAS 0.01 i.u./kg, 90 min.
Setting [6] is: 10 mg/kg i.v., VAS 0.01 i.u./kg, 120 min.
Where [7] appears, read: 10 mg/kg i.v., VAS 0.01 i.u./kg, 180 min.
Setting [8] is: 10 mg/kg i.v., VAS 0.01 i.u./kg, 240 min.
Where [9] appears, read: 10 mg/kg i.v., VAS 0.01 i.u./kg, 300 min.
Where [10] appears, read: 10 mg/kg i.v., VAS 0.02 i.u./kg, 30 min.
Setting [11] is: 10 mg/kg i.v., VAS 0.02 i.u./kg, 60 min.
The mark [12] stands for this setting: 10 mg/kg i.v., VAS 0.02 i.u./kg, 90 min.
[13] abbreviates: 10 mg/kg i.v., VAS 0.02 i.u./kg, 120 min.
The mark [14] stands for this setting: 10 mg/kg i.v., VAS 0.02 i.u./kg, 180 min.
[15] abbreviates: 10 mg/kg i.v., VAS 0.02 i.u./kg, 240 min.
[16] abbreviates: 10 mg/kg i.v., VAS 0.02 i.u./kg, 300 min.

pIC50: −log10 of the molar value.

T1 sequence (P30560 whole entry): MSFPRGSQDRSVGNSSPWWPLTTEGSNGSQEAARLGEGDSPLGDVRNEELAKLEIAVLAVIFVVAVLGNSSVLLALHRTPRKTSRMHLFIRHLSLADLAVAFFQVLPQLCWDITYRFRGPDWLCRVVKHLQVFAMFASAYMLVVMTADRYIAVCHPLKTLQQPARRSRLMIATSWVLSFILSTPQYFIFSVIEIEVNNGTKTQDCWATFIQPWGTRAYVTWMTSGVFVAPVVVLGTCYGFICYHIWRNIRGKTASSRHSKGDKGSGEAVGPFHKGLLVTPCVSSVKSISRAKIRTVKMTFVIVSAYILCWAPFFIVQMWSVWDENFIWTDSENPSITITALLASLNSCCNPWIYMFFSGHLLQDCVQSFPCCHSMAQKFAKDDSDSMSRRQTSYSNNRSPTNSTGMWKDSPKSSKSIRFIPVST

On to `CSc1ccccc1C(=O)Nc1ccc(C(=O)N2Cc3cccn3Cc3ccccc32)cc1` [Example 85, N-[4-(5H-Pyrrolo[2,1-c][1,4]benzodiazepin-10(11H)-ylcarbonyl)phenyl]-2-(methylthio)benzamide], for which the pIC50 in experiment [1] is 8.05. Besides, the “% Inhibition” value in experiment [2] (setting [3]) was 83%; in experiment [2] (setting [4]) it was 74%; in experiment [2] (setting [5]), 64%; in experiment [2] (setting [6]), 66%; in experiment [2] (setting [7]), 42%; in experiment [2] (setting [8]) it was 55%. Besides, the “% Inhibition” value in experiment [2] (setting [9]) turned out to be 5%; in experiment [2] (setting [10]) it was 75%; in experiment [2] (setting [11]) it was 73%; in experiment [2] (setting [12]), 79%; in experiment [2] (setting [13]), 82%; in experiment [2] (setting [14]), 45%. Further, the “% Inhibition” value in experiment [2] (setting [15]) and in experiment [2] (setting [16]) was 49% throughout. The “Average Change” value in experiment [2] (setting [3]) was found to be 4.5; in experiment [2] (setting [4]), 7; in experiment [2] (setting [5]), 9.5; in experiment [2] (setting [6]) it was 9; in experiment [2] (setting [7]), 15.5; in experiment [2] (setting [8]) it was 12. Besides, the “Average Change” value was determined as 12 in experiment [2] (setting [9]); 9 in experiment [2] (setting [10]); 9.5 in experiment [2] (setting [11]); 7.5 in experiment [2] (setting [12]); 6.5 in experiment [2] (setting [13]); 19.5 in experiment [2] (setting [14]). Besides, the “Average Change” value in experiment [2] (setting [15]) and in experiment [2] (setting [16]) was 18 in each case.

Turning to `Cc1ccccc1CC(=O)Nc1ccc(C(=O)N2Cc3cccn3Cc3ccccc32)cc1` [Example 93, N-[4(5H-Pyrrolo[2,1-c][1,4]benzodiazepin-10(11H)-ylcarbonyl)phenyl]-2-methylbenzeneacetamide], the pIC50 in experiment [1] was 9.05. The “% Inhibition” value in experiment [2] (setting [3]) came out at 96%; in experiment [2] (setting [4]) it was 94%; in experiment [2] (setting [5]), 90%; in experiment [2] (setting [6]), 88%; in experiment [2] (setting [7]) it was 73%; in experiment [2] (setting [8]), 74%. In addition, the “% Inhibition” value in experiment [2] (setting [9]) is given as 76%; in experiment [2] (setting [10]), 94%; in experiment [2] (setting [11]), 92%; in experiment [2] (setting [12]) it was 90%; in experiment [2] (setting [13]) it was 90%; in experiment [2] (setting [14]), 78%. Also, the entries for the “% Inhibition” value in experiment [2] (setting [15]) and in experiment [2] (setting [16]) were 76% and 74%, respectively. The “Average Change” value stood at 2 in experiment [2] (setting [3]); 3 in experiment [2] (setting [4]); 5 in experiment [2] (setting [5]); 6 in experiment [2] (setting [6]); 13.5 in experiment [2] (setting [7]); 13 in experiment [2] (setting [8]). Also, the “Average Change” value is given as 12 in experiment [2] (setting [9]); 4.5 in experiment [2] (setting [10]); 5.5 in experiment [2] (setting [11]); 7 in experiment [2] (setting [12]); 7 in experiment [2] (setting [13]); 15.5 in experiment [2] (setting [14]). Further, the “Average Change” value in experiment [2] (setting [15]) is reported as 17; in experiment [2] (setting [16]), 18.5.

As for `Cc1ccccc1C(=O)Nc1ccc(C(=O)N2Cc3ccnn3Cc3ccccc32)cc1` [Example 210, N-[4-(4H-Pyrazolo[5,1-c][1,4]benzodiazepin-5(10H)-ylcarbonyl)phenyl]-2-methylbenzamide], in experiment [1], the pIC50 is 7.24. In experiment [2] (10 mg/kg i.v.), the “Max. % Inhibition” value is given as 78% and the “Time (of max. % inhibition)” value was found to be 90 min.

`O=C(Nc1ccc(C(=O)N2Cc3cccn3Cc3ccccc32)cc1)c1c(Cl)cccc1Cl` [Example 469, N-[4-(5H-pyrrolo[2,1-c][1,4]benzodiazepin-10(11H)-ylcarbonyl)phenyl]-2,6-dichlorobenzamide]: the pIC50 in experiment [1] was 7.03. In experiment [2] (10 mg/kg i.v.), the “Max. % Inhibition” value is listed as 69% and the “Time (of max. % inhibition)” value worked out at 30 min.

Take `Cc1ccccc1C(=O)Nc1ccc(C(=O)N2Cc3cccn3Cc3ccccc32)c(Cl)c1` [Example 470]: the pIC50 in experiment [1] is 7.27. Also, the entries for the “Max. % Inhibition” value in experiment [2] (10 mg/kg i.v.) and in experiment [2] (30 mg/kg p.o.) were 87% and 69%, respectively. Moreover, the “Time (of max. % inhibition)” value in experiment [2] (10 mg/kg i.v.) and in experiment [2] (30 mg/kg p.o.) was 180 min each time.

For the compound `O=C(Nc1ccc(C(=O)N2Cc3cccn3Cc3ccccc32)c(Cl)c1)c1ccc(Cl)cc1Cl` [Example 471], the pIC50 in experiment [1] is 7.35. In experiment [2] (30 mg/kg i.v.), the “Max. % Inhibition” value was 85% and the “Time (of max. % inhibition)” value is listed as 90 min.

Consider `Cc1ccccc1C(=O)Nc1c(C)cc(C(=O)N2Cc3cccn3Cc3ccccc32)cc1C` [Example 472], for which the pIC50 in experiment [1] is 6.05. In experiment [2] (30 mg/kg i.v.), the “Max. % Inhibition” value was 36% and the “Time (of max. % inhibition)” value is listed as 90 min.

For `O=C(Nc1ccc(C(=O)N2Cc3cccn3Cc3ccccc32)cc1)c1cccc(C(F)(F)F)c1` [Example 474, N-[4-(5H-pyrrolo[2,1-c][1,4]benzodiazepin-10(11H)-ylcarbonyl)phenyl]-3-(trifluoromethyl)benzamide], in experiment [1], the pIC50 was 7.06. Moreover, in experiment [2] (30 mg/kg i.v.), the “Max. % Inhibition” value was 80% and the “Time (of max. % inhibition)” value worked out at 60 min.

With `O=C(Nc1ccc(C(=O)N2Cc3cccn3Cc3ccccc32)cc1)c1sccc1Cl` [Example 476, N-[4-(5H-pyrrolo[2,1-c][1,4]benzodiazepin-10(11H)-ylcarbonyl)phenyl]-3-chlorothiophene-2-carboxamide], in experiment [1], the pIC50 was 7.08. For the same compound, in experiment [2] (10 mg/kg i.v.), the “Max. % Inhibition” value turned out to be 78% and the “Time (of max. % inhibition)” value was found to be 30 min. In experiment [2] (30 mg/kg p.o.), the “Max. % Inhibition” value was 19% and the “Time (of max. % inhibition)” value is reported as 180 min.

With `Cc1c(F)cccc1C(=O)Nc1ccc(C(=O)N2Cc3cccn3Cc3ccccc32)c(Cl)c1` [Example 481, N-[4-(5H-pyrrolo[2,1-c][1,4]benzodiazepin-10(11H)-ylcarbonyl)-3-chlorophenyl]-3-fluoro-2-methylbenzamide], the pIC50 in experiment [1] was 6.00. In addition, in experiment [2] (30 mg/kg p.o.), the “Max. % Inhibition” value came out at 58% and the “Time (of max. % inhibition)” value was 80 min.

`Cc1ccc(F)cc1C(=O)Nc1ccc(C(=O)N2Cc3cccn3Cc3ccccc32)c(Cl)c1` [Example 482, N-[4-(5H-pyrrolo[2,1-c][1,4]benzodiazepin-10(11H)-ylcarbony)-3-chlorophenyl]-5-fluoro-2-methylbenzamide]: the pIC50 in experiment [1] was 6.39. Besides, in experiment [2] (10 mg/kg i.v.), the “Max. % Inhibition” value came out at 40% and the “Time (of max. % inhibition)” value was found to be 60 min.

`Cc1cccc(NC(=O)c2ccc(C(=O)N3Cc4cccn4Cc4ccccc43)cc2)c1C` [Example 485, N-(2,3-Dimethylphenyl)-4-(5H-pyrrolo[2,1-c][1,4]benzodiazepin-10(11H)-ylcarbonyl)benzamide]: in experiment [1], the pIC50 is 6.62. In experiment [2] (30 mg/kg i.v.), the “Max. % Inhibition” value amounted to 64% and the “Time (of max. % inhibition)” value is listed as 60 min.

`COC(=O)c1ccc(C(=O)Nc2ccc(C(=O)N3Cc4cccn4Cc4ccccc43)cc2)cc1` [Example 489] yielded an inhibition at 10 µM in experiment [1] (2 h, 10 μM, rat) of 61%. Further, in experiment [2] (30 mg/kg i.v.), the “Max. % Inhibition” value was 39% and the “Time (of max. % inhibition)” value is listed as 120 min.

Turning to `CN(C)CN(C(=O)c1ccc(Cl)cc1Cl)c1ccc(C(=O)N2Cc3cccn3Cc3ccccc32)cc1` [Example 490, N-[(Dimethylamino)methyl]-N-[4-(5H-pyrrolo[2,1-c][1,4]benzodiazepin-10(11H)-ylcarbonyl)phenyl]-2,4-dichlorobenzamide], in experiment [1], the pIC50 is 7.85. Further, in experiment [2] (10 mg/kg i.v.), the “Max. % Inhibition” value stood at 74% and the “Time (of max. % inhibition)” value is given as 90 min. For the same compound, in experiment [2] (10 mg/kg p.o.), the “Max. % Inhibition” value stood at 65% and the “Time (of max. % inhibition)” value is reported as 120 min.

Turning to `Cc1c(F)cccc1C(=O)Nc1ccc(C(=O)N2Cc3ccnn3Cc3ccccc32)cc1` [Example 517, N-[4-(4H-Pyrazolo[5,1-c][1,4]benzodiazepin-5(10H)-ylcarbonyl)phenyl]-3-fluoro-2-methylbenzamide], the pIC50 in experiment [1] is 6.68. Moreover, in experiment [2] (10 mg/kg i.v.), the “Max. % Inhibition” value was 81% and the “Time (of max. % inhibition)” value stood at 90 min.

Consider `O=C(Nc1ccc(C(=O)N2Cc3ccc(CO)n3Cc3ccccc32)cc1)c1ccc(Cl)cc1Cl` [Example 581, 2,4-Dichloro-N-[4-[[3-(hydroxymethyl)-5H-pyrrolo[2,1-c][1,4]benzodiazepin-10(11H)-yl]carbonyl]phenyl]benzamide], for which the pIC50 in experiment [1] was 7.68. In experiment [2] (10 mg/kg i.v.), the “Max. % Inhibition” value came out at 94% and the “Time (of max. % inhibition)” value is reported as 30 min. Further, in experiment [2] (30 mg/kg p.o.), the “Max. % Inhibition” value is 79% and the “Time (of max. % inhibition)” value came out at 30 min.

With `O=C(Nc1ccc(C(=O)N2Cc3ccc(Cn4ccnc4)n3Cc3ccccc32)cc1)c1ccc(Cl)cc1Cl` [Example 582, 2,4-Dichloro-N-[4-[[3-(1H-imidazol-1-ylmethyl)-5H-pyrrolo[2,1-c][1,4]benzodiazepin-10(11H)-yl]carbonyl]phenyl]benzamide], the pIC50 in experiment [1] is 6.89. In addition, in experiment [2] (10 mg/kg i.v.), the “Max. % Inhibition” value is given as 75% and the “Time (of max. % inhibition)” value is recorded as 170 min.

Usually pIC50 stands for the negative decadic logarithm of the IC50, by convention in mol/L. In general, % Inhibition refers to how much of the control response was suppressed. Usually inhibition stands for the relative decrease from the control value, in per cent.
